Converted amounts (≈) assume the structure as drawn.
Legend:
Type in all cases: functional
Human alphaherpesvirus 2 [1] = experiment: Minimum inhibitory concentration causing 25% inhibition of cytopathic effect induced by Herpes simplex virus(HSV) -2 (thymidine kinase deficient) in HEp-2 cells
Human alphaherpesvirus 1 [2] = experiment: Minimum inhibitory concentration causing 25% inhibition cytopathic effect induced by Herpes simplex virus(HSV) -1 (thymidine kinase deficient) in HEp-2 cells
Mus musculus [3] = experiment: Mean duration of lesions in HSV-1 infected mice, after administration of 0.3 % of compound intracutaneously
Human alphaherpesvirus 1 [4] = experiment: Minimum inhibitory concentration causing 25% inhibition of cytopathic effect induced by herpes simplex virus (HSV)-1 (K979) in vero cells.
Human alphaherpesvirus 1 [5] = experiment: Minimum inhibitory concentration of compound causing 50% inhibition of cytopathic effect induced by HSV-1 in PRK cells
Oryctolagus cuniculus [6] = species: Oryctolagus cuniculus; experiment: Minimum cytotoxic concentration of compound causing toxic effects on uninfected cells
Mus musculus [7] = experiment: Mean duration of lesions in HSV-1 infected mice, after administration of 0.1 % of compound intracutaneously
Human alphaherpesvirus 1 [8] = experiment: Minimum inhibitory concentration causing 25% inhibition of cytopathic effect induced by Herpes simplex virus-1 (Brand) in vero cells
Human alphaherpesvirus 1 [9] = experiment: Minimum inhibitory concentration causing 25% inhibition of cytopathic effect induced by Herpes simplex virus-1 (K979) in HEp-2 cells
Human alphaherpesvirus 1 [10] = experiment: Mean survival time in HSV-1 infected mice, after intraperitoneal administration of 0.5 mg/kg of compound
Oryctolagus cuniculus [11] = species: Oryctolagus cuniculus; experiment: Minimum cytotoxic concentration causing toxic effects on uninfected cells in rabbit
Human alphaherpesvirus 1 [12] = experiment: Cumulative mortality in percent of HSV-1 infected mice, after peroral administration of 5 mg/kg of compound; settings: route oral
Human alphaherpesvirus 1 [13] = experiment: Mean survival time in HSV-1 infected mice, after peroral administration of 5 mg/kg of compound; settings: route oral
Mus musculus [14] = experiment: Cumulative lesions in HSV-1 infected mice, after administration of 0.3 % of compound intracutaneously
Human alphaherpesvirus 1 [15] = experiment: Minimum inhibitory concentration causing 25% inhibition of cytopathic effect induced by Herpes simplex virus(HSV) -1 (thymidine kinase deficient) in vero cells
Human alphaherpesvirus 1 [16] = experiment: Cumulative mortality in percent of HSV-1 infected mice, after intraperitoneal administration of 0.5 mg/kg of compound
Human alphaherpesvirus 1 [17] = experiment: Minimum inhibitory concentration causing 25% inhibition cytopathic effect induced by Herpes simplex virus-1 (Brand) in HEp-2 cells
Human alphaherpesvirus 1 [18] = experiment: Minimum inhibitory concentration of compound causing 50% inhibition of cytopathic effect induced by HSV-1(thymidine kinase deficient) in PRK cells
Human alphaherpesvirus 2 [19] = experiment: Minimum inhibitory concentration causing 25% inhibition cytopathic effect induced by Herpes simplex virus(HSV) -2 (thymidine kinase deficient) in vero cells
Human alphaherpesvirus 2 [20] = experiment: Minimum inhibitory concentration of compound causing 50% inhibition of cytopathic effect induced by HSV-2 in PRK cells
Mus musculus [21] = experiment: Cumulative lesions in HSV-1 infected mice, after administration of 0.1 % of compound intracutaneously
Human alphaherpesvirus 1 [22] = experiment: Minimum inhibitory concentration causing 50% inhibition of cytopathic effect induced by HSV-1 (thymidine kinase deficient) in PRK cells
Human alphaherpesvirus 2 [23] = experiment: Minimum inhibitory concentration causing 50% inhibition of cytopathic effect induced by HSV-2 in PRK cells
Human alphaherpesvirus 1 [24] = experiment: Minimum inhibitory concentration causing 50% inhibition of cytopathic effect induced by HSV-1 in PRK cells
Mus musculus [25] = experiment: Cumulative mortality in percent of HSV-1 (KOS strain) infected mice, after peroral administration of 100 mg/kg of compound; settings: route oral
Human alphaherpesvirus 1 [26] = experiment: Mean survival time in HSV-1 infected mice, after peroral administration of 1 mg/kg of compound; settings: route oral
Human alphaherpesvirus 1 [27] = experiment: Cumulative mortality in percent of HSV-1 infected mice, after peroral administration of 10 mg/kg of compound; settings: route oral
Human alphaherpesvirus 1 [28] = experiment: Minimum inhibitory concentration causing 25% inhibition of cytopathic effect induced by Herpes simplex virus(HSV) -1 (thymidine kinase deficient) in HEp-2 cells
Human alphaherpesvirus 1 [29] = experiment: Cumulative mortality in percent of HSV-1 infected mice, after intraperitoneal administration of 5 mg/kg of compound
Human alphaherpesvirus 1 [30] = experiment: Cumulative mortality in percent of HSV-1 infected mice, after intraperitoneal administration of 1 mg/kg of compound
Human alphaherpesvirus 1 [31] = experiment: Mean survival time in HSV-1 infected mice, after intraperitoneal administration of 1 mg/kg of compound
Human alphaherpesvirus 1 [32] = experiment: Mean survival time in HSV-1 infected mice, after intraperitoneal administration of 5 mg/kg of compound
Human alphaherpesvirus 1 [33] = experiment: Cumulative mortality in percent of HSV-1 infected mice, after peroral administration of 1 mg/kg of compound; settings: route oral
Human alphaherpesvirus 2 [34] = experiment: Minimum inhibitory concentration causing 25% inhibition of cytopathic effect induced by Herpes simplex virus(HSV) -2 (thymidine kinase deficient) in vero cells
Human alphaherpesvirus 1 [35] = experiment: Mean survival time in HSV-1 infected mice, after peroral administration of 10 mg/kg of compound; settings: route oral
Human alphaherpesvirus 1 [36] = experiment: Minimum inhibitory concentration causing 25% inhibition of cytopathic effect induced by Herpes simplex virus(HSV) -1 (Brand) in HEp-2 cells
Human alphaherpesvirus 1 [37] = experiment: Minimum inhibitory concentration of compound causing 50% inhibition of cytopathic effect induced by HSV-1 (thymidine kinase deficient) in PRK cells

Structure (SMILES) | MIC (Human alphaherpesvirus 2 [1]) [µM] | MDL (Mus musculus [3]) [days] | MIC (Human alphaherpesvirus 1 [4]) [µM] | MDL (Mus musculus [7]) [days] | MIC (Human alphaherpesvirus 1 [8]) [µM] | MIC (Human alphaherpesvirus 1 [9]) [µM] | MST (Human alphaherpesvirus 1 [10]) [days] | MTC (Oryctolagus cuniculus [11]) | CMP (Human alphaherpesvirus 1 [12]) | MST (Human alphaherpesvirus 1 [13]) [days] | lesions (Mus musculus [14]) | MIC (Human alphaherpesvirus 1 [15]) [µM] | CMP (Human alphaherpesvirus 1 [16]) | MIC (Human alphaherpesvirus 1 [17]) [µM] | lesions (Mus musculus [21]) | MST (Human alphaherpesvirus 1 [26]) [days] | CMP (Human alphaherpesvirus 1 [27]) | MIC (Human alphaherpesvirus 1 [28]) [µM] | CMP (Human alphaherpesvirus 1 [29]) | MIC (Human alphaherpesvirus 2 [34]) [µM] | other results
O=c1[nH]c(=O)n([C@H]2C[C@H](O)[C@@H](CO)O2)cc1CCCl | > 342 | 0.9 | 102 (≈ 29.7 µg/mL) | 2.4 | 0.03 (≈ 0.00872 µg/mL) | 10.2 (≈ 2.97 µg/mL) | 16.7 | 1127 µM | 10 | 19 | 17 | 34.2 (≈ 9.94 µg/mL) | 35 | 0.1 (≈ 0.0291 µg/mL) | 40 | – | – | – | – | – | MIC (Human alphaherpesvirus 1 [2]): > 342 µM; MIC (Human alphaherpesvirus 1 [5]): 0.3 µM (≈ 0.0872 µg/mL); MTC (Oryctolagus cuniculus [6]): >1366 µM; MIC (Human alphaherpesvirus 1 [18]): > 1370 µM; MIC (Human alphaherpesvirus 2 [19]): > 342 µM; MIC (Human alphaherpesvirus 2 [20]): 34.2 µM (≈ 9.94 µg/mL)
COC(=O)P(=O)(O)OC[C@H]1O[C@@H](n2cc(/C=C\Br)c(=O)[nH]c2=O)C[C@@H]1O | – | – | – | – | – | – | – | >=87.9 uM | – | – | – | – | – | – | – | – | – | – | – | – | MIC (Human alphaherpesvirus 1 [22]): > 87.9 µM; MIC (Human alphaherpesvirus 2 [23]): > 87.9 µM; MIC (Human alphaherpesvirus 1 [24]): 1.5 µM (≈ 0.683 µg/mL); CMP (Mus musculus [25]): 50
O=C(CP(=O)(O)O)OC[C@H]1O[C@@H](n2cc(CCCl)c(=O)[nH]c2=O)C[C@@H]1O | 242 (≈ 99.9 µg/mL) | 2.4 | > 242 | – | 24.2 (≈ 9.99 µg/mL) | > 242 | 12.2 | 800 µM | 50 | 15.3 | 40 | 72.7 (≈ 30 µg/mL) | 75 | 24.2 (≈ 9.99 µg/mL) | – | 11.8 | 42 | 242 (≈ 99.9 µg/mL) | 17 | 72.7 (≈ 30 µg/mL) | CMP (Human alphaherpesvirus 1 [30]): 33; MST (Human alphaherpesvirus 1 [31]): 16 days; MST (Human alphaherpesvirus 1 [32]): 18.3 days; CMP (Human alphaherpesvirus 1 [33]): 67; MST (Human alphaherpesvirus 1 [35]): 16.3 days
COP(=O)(CC(=O)OC[C@H]1O[C@@H](n2cc(I)c(=O)[nH]c2=O)C[C@@H]1O)OC | – | – | 5.9 (≈ 2.97 µg/mL) | – | 0.6 (≈ 0.303 µg/mL) | 198 (≈ 99.8 µg/mL) | – | 655 µM | – | – | – | 2 (≈ 1.01 µg/mL) | – | – | – | – | – | > 198 | – | 59.5 (≈ 30 µg/mL) | MIC (Human alphaherpesvirus 1 [36]): 0.2 µM (≈ 0.101 µg/mL)
CCOC(=O)P(=O)(OC)OC[C@H]1O[C@@H](n2cc(I)c(=O)[nH]c2=O)C[C@@H]1O (some centres undefined) | 5.9 (≈ 2.97 µg/mL) | – | 5.9 (≈ 2.97 µg/mL) | – | 0.6 (≈ 0.303 µg/mL) | 5.9 (≈ 2.97 µg/mL) | – | 198 µM | – | – | – | 19.8 (≈ 9.98 µg/mL) | – | 2 (≈ 1.01 µg/mL) | – | – | – | – | – | – | MIC (Human alphaherpesvirus 1 [2]): 2 µM (≈ 1.01 µg/mL); MIC (Human alphaherpesvirus 2 [19]): 5.9 µM (≈ 2.97 µg/mL)
CCOC(=O)P(=O)(OC)OC[C@H]1O[C@@H](n2cc(CCCl)c(=O)[nH]c2=O)C[C@@H]1O (some centres undefined) | > 227 | 1.4 | 227 (≈ 100 µg/mL) | 3.3 | 0.7 (≈ 0.309 µg/mL) | 22.7 (≈ 10 µg/mL) | 16.7 | 749 µM | 38 | 16 | 17 | 68.1 (≈ 30 µg/mL) | 33 | 0.7 (≈ 0.309 µg/mL) | 33 | 13.9 | 13 | > 227 | 0 | > 227 | CMP (Human alphaherpesvirus 1 [30]): 42; MST (Human alphaherpesvirus 1 [31]): 15.6 days; MST (Human alphaherpesvirus 1 [32]): 20 days; CMP (Human alphaherpesvirus 1 [33]): 63; MST (Human alphaherpesvirus 1 [35]): 18.9 days
O=C(O)CP(=O)(O)O [FOSFONET] | 214 (≈ 30 µg/mL) | – | 71.4 (≈ 10 µg/mL) | – | 71.4 (≈ 10 µg/mL) | 71.4 (≈ 10 µg/mL) | – | 2.356 µM | – | – | – | 71.4 (≈ 10 µg/mL) | – | 214 (≈ 30 µg/mL) | – | – | – | 214 (≈ 30 µg/mL) | – | 71.4 (≈ 10 µg/mL) | MIC (Human alphaherpesvirus 1 [37]): 286 µM (≈ 40 µg/mL); MIC (Human alphaherpesvirus 1 [5]): 286 µM (≈ 40 µg/mL); MTC (Oryctolagus cuniculus [6]): >2856 µM; MIC (Human alphaherpesvirus 2 [20]): 143 µM (≈ 20 µg/mL)
CCOC(=O)CP(=O)(OC)OC[C@H]1O[C@@H](n2cc(CCCl)c(=O)[nH]c2=O)C[C@@H]1O (some centres undefined) | > 220 | 6 | > 220 | 10.6 | 6.6 (≈ 3 µg/mL) | > 220 | 13.9 | 726 µM | 75 | 12.8 | 58 | 66 (≈ 30 µg/mL) | 58 | 66 (≈ 30 µg/mL) | 83 | 8.9 | 67 | > 220 | 83 | > 220 | CMP (Human alphaherpesvirus 1 [30]): 92; MST (Human alphaherpesvirus 1 [31]): 11.9 days; MST (Human alphaherpesvirus 1 [32]): 11.8 days; CMP (Human alphaherpesvirus 1 [33]): 100; MST (Human alphaherpesvirus 1 [35]): 11.5 days
